# Patent publication US5250426A, “Molecules with antibody combining sites that induce asymmetry” (The Scripps Research Institute, priority 1991, dated 1993)
# Test system: monoclonal antibodies induced by Compound A
# Assay: Inhibition of the antibody-catalyzed hydrolysis of Compound 1 by free Compound A
# Assay type: biochemical, mice
# Details: all three monoclonal antibodies
# Procedure: The production of Compound 2 by a monoclonal antibody composition of this invention was assayed at a concentration of 20 μM monoclonal antibody and 1.5 mM Compound 1 in 10 percent dimethylsulfoxide (DMSO)/ATE buffer (0.52M ACES, 0.52M Tris, 0.01M ethanolamine pH 9.0) at 25° C. The initial rate of hydrolysis of Compound 1 by the monoclonal antibodies produced by three hybridomas followed Michaelis-Menten kinetics (Table 1 hereinafter).
compound,measurement,value
CC1(OP(=O)(O)Cc2ccc(CCN)cc2)CCCCC1 [Compound A],inhibition of the hydrolytic reaction by addition of free Compound A,extensive inhibition
